The source made the active and inactive calls. The rule behind the calls is not given here.
Legend:
THP-1 = experiment: Anti-inflammatory activity in human THP-1 cells assessed as decrease in CXCL8 mRNA level at 5 uM pretreated for 1 hr followed by infection with Helicobacter pylori for 2 hrs by RT-qPCR analysis; type: functional, cell-based; conditions: time 3.0 hrs
Mus musculus = experiment: Anti-inflammatory activity in C57BL/6 mouse model of Helicobacter pylori-induced gastric inflammation assessed as inhibition in gastric keratinocyte chemoattractant level pretreated orally with compound upto 24 hrs followed by infection of Helicobacter pylori measured upto 72 hrs; type: functional, organism-based; conditions: dose 12.5-50 mg/kg, route po, time <= 96.0 hrs
[1] = target: T1, Nucleotide-binding oligomerization domain-containing protein 1 (Mus musculus) (UniProt Q8BHB0); experiment: Antagonist activity at NOD1 in mouse BMDM cells assessed as decrease in phosphorylated RIP2 level at 0.1 to 1 uM incubated for 1 hr followed by C12-iE-DAP stimulation for 30 mins by Western blot analysis; type: cell-based; conditions: filed as antagonist, dose 0.1-1 µM, time 1.5 hrs
T1 sequence (whole entry): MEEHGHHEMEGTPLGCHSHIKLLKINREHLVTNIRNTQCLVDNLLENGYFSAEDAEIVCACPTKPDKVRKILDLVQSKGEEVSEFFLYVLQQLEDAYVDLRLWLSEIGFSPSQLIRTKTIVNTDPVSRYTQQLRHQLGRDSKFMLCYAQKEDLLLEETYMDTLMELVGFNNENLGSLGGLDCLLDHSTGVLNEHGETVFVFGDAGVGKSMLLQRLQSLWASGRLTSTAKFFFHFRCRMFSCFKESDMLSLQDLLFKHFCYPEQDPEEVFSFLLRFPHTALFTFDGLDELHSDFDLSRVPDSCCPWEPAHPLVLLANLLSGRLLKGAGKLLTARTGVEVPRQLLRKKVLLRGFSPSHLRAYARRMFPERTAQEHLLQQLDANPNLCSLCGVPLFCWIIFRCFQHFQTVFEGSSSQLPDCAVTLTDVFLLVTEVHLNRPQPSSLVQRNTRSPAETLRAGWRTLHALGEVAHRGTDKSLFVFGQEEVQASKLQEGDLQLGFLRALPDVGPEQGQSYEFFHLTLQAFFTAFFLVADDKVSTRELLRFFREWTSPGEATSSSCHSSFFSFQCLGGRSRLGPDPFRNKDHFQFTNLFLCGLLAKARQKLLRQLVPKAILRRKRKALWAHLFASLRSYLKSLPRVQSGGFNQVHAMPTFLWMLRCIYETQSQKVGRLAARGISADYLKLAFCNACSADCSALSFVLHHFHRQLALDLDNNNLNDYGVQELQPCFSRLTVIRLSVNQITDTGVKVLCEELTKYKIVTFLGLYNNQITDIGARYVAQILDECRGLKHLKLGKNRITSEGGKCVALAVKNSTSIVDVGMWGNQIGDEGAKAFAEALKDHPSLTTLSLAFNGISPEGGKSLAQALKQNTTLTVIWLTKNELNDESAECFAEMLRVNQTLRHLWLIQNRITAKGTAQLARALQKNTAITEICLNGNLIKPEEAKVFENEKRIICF

[2] = Volume of distribution at steady state in C57BL/6 mouse at 2 mg/kg, iv by LC-MS/MS analysis; type: ADME, organism-based; conditions: in vivo, read-out: Vdss
[3] = target: T2, Nucleotide-binding oligomerization domain-containing protein 1 (Homo sapiens) (UniProt Q9Y239); experiment: Antagonist activity at NOD1 in human THP-1 cells assessed as decrease in phosphorylated p38 level at 0.1 to 1 uM incubated for 1 hr followed by C12-iE-DAP stimulation for 30 mins by Western blot analysis; type: cell-based; conditions: filed as antagonist, dose 0.1-1 µM, time 1.5 hrs
T2 sequence (whole entry): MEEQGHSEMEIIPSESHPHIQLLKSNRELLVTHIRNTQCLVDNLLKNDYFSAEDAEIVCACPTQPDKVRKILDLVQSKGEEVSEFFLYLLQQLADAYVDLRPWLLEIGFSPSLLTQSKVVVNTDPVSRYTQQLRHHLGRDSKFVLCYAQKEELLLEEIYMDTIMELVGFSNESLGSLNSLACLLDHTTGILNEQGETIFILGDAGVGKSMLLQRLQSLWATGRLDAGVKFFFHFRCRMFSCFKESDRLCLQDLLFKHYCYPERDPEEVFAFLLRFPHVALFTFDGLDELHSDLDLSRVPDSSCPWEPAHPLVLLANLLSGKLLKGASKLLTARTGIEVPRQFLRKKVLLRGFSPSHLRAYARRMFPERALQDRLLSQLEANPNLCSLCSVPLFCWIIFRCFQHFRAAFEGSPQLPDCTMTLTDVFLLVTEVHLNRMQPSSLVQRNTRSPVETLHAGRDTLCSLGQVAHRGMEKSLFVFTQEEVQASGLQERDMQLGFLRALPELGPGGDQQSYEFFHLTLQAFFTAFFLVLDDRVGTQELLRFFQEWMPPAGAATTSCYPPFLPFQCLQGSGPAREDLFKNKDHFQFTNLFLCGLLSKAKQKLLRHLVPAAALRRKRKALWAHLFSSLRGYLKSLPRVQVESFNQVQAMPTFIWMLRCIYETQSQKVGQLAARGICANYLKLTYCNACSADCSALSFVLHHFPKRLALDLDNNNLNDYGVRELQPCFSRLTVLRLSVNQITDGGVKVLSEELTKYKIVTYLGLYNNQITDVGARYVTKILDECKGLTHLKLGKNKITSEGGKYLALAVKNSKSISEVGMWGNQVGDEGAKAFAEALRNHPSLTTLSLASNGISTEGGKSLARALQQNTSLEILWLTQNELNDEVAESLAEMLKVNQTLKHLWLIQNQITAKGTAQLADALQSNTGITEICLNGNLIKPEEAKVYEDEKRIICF

[4] = target: T2, Nucleotide-binding oligomerization domain-containing protein 1 (Homo sapiens); experiment: Antagonist activity at NOD1 in human THP-1 cells assessed as decrease in phosphorylated RIP2 level at 0.1 to 1 uM incubated for 1 hr followed by C12-iE-DAP stimulation for 30 mins by Western blot analysis; type: cell-based; conditions: filed as antagonist, dose 0.1-1 µM, time 1.5 hrs
[5] = target: T1, Nucleotide-binding oligomerization domain-containing protein 1 (Mus musculus); experiment: Antagonist activity at NOD1 in mouse BMDM cells assessed as decrease in phosphorylated p65 level at 0.1 to 1 uM incubated for 1 hr followed by C12-iE-DAP stimulation for 30 mins by Western blot analysis; type: cell-based; conditions: filed as antagonist, dose 0.1-1 µM, time 1.5 hrs

inhibition [1]: Active
Vd [2]: 1.33 L/kg
inhibition [3]: Active
inhibition [4]: Active
inhibition [5]: Active
SMILES: CS(=O)(=O)c1ccc2nc(Cl)n(-c3ccc(Cl)c(NS(=O)(=O)c4c(F)cccc4F)c3)c(=O)c2c1
Activity (THP-1): Active
inhibition (Mus musculus): Dose-dependent-effect; Exhibited Superior Efficacy Compared To Compound C
